Reference: the kinase profiling compilation of Christmann-Franck et al. (2016)

What was measured:
Test in all cases: KINOMEscan competition binding
Conditions in all cases: compound 10.0 µM
EGFR (human) = EGFR (human) (UniProt P00533)
TBK1 (human) = TBK1 (human) (UniProt Q9UHD2)
DYRK2 (human) = DYRK2 (human) (UniProt Q92630)
[1] = test system: EGFR (human), P00533 [P753S; 747-752 del]
GRK1 (human) = GRK1 (human) (UniProt Q15835)
NEK4 (human) = NEK4 (human) (UniProt P51957)
MAP3K15 (human) = MAP3K15 (human) (UniProt Q6ZN16)
Sequence of MAP3K15 (human) (Q6ZN16 whole entry, looked up): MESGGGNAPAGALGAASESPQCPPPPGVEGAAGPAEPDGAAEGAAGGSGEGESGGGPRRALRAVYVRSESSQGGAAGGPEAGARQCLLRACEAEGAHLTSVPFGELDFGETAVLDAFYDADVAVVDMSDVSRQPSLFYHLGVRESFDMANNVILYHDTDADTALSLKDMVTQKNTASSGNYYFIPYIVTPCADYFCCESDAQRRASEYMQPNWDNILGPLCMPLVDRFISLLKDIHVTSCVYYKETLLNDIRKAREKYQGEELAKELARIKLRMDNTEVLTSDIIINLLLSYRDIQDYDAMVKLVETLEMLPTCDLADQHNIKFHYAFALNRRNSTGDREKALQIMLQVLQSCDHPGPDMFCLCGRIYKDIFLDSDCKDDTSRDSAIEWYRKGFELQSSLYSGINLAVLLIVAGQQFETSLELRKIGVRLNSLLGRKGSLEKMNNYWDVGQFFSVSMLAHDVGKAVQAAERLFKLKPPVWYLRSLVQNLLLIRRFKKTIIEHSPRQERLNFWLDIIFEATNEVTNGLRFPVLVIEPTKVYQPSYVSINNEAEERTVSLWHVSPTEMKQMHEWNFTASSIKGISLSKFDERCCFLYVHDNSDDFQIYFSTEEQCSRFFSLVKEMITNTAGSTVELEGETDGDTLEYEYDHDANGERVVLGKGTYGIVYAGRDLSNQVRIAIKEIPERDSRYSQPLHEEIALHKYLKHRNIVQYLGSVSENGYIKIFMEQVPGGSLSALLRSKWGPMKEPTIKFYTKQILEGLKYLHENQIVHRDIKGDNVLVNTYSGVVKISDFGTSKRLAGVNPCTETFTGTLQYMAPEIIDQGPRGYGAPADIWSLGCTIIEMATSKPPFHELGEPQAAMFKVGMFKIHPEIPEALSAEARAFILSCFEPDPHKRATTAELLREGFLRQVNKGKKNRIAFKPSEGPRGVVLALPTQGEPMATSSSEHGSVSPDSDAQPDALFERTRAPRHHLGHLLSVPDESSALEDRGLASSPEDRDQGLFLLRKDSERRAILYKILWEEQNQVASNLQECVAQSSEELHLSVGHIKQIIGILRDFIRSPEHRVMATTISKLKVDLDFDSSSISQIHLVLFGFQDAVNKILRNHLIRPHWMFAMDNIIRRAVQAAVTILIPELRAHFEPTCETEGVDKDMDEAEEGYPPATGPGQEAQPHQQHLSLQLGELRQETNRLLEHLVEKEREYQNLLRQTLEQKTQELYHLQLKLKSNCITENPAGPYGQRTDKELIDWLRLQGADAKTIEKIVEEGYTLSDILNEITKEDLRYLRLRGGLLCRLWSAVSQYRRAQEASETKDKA

PKN3 (M.tuberculosis) = PKN3 (M.tuberculosis) (UniProt Q6P5Z2)
[2] = test system: PIK3CA (human), P42336 [I800L]
MAP3K2 (human) = MAP3K2 (human) (UniProt Q9Y2U5)
Sequence of MAP3K2 (human) (Q9Y2U5 whole entry, looked up): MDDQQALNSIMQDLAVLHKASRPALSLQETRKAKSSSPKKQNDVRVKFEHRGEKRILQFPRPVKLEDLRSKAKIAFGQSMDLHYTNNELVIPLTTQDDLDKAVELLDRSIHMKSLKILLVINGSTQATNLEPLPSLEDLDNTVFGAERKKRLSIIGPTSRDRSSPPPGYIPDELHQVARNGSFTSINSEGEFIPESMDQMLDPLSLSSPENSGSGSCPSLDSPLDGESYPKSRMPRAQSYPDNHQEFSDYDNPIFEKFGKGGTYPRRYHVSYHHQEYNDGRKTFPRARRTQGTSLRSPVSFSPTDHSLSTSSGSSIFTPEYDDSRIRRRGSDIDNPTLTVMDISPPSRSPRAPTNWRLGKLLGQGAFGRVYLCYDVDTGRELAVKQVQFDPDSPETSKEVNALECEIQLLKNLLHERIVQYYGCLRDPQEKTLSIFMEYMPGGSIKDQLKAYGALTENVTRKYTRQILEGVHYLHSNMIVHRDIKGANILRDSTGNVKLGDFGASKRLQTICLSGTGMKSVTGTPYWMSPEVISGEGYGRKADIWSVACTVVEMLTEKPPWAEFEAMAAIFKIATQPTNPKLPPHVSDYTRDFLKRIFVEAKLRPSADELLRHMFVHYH

MAP3K1 (human) = MAP3K1 (human) (UniProt Q13233)
[3] = test system: EGFR (human), P00533 [746-750 del]
CRK2 (P.falciparum) = CRK2 (P.falciparum) (UniProt P61075)
[4] = test system: KIT (human), P10721 [V559D/T670I]
CDK4 CCND3 (human) = CDK4 CCND3 (human) (UniProt P11802+P30281)
TIE1 (human) = TIE1 (human) (UniProt P35590)
[5] = test system: EGFR (human), P00533 [L861Q]
MAP3K6 (human) = MAP3K6 (human) (UniProt O95382)
MATK (human) = MATK (human) (UniProt P42679)
NEK11 (human) = NEK11 (human) (UniProt Q8NG66)
[6] = test system: EGFR (human), P00533 [G719S]
DDR1 (human) = DDR1 (human) (UniProt Q08345)
PRPF4B (human) = PRPF4B (human) (UniProt Q13523)
CSNK1A1 (human) = CSNK1A1 (human) (UniProt P48729)
Sequence of CSNK1A1 (human) (P48729 whole entry, looked up): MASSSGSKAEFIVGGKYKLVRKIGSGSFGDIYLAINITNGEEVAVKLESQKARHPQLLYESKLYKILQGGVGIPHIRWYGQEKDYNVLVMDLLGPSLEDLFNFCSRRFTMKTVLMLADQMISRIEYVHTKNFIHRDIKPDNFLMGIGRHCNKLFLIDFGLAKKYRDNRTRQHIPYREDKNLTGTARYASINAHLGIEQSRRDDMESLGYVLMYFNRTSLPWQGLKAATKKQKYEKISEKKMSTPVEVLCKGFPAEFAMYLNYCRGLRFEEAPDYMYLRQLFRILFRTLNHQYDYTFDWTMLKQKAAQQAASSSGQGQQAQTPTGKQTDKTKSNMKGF

MAK (human) = MAK (human) (UniProt P20794)
Sequence of MAK (human) (P20794 whole entry, looked up): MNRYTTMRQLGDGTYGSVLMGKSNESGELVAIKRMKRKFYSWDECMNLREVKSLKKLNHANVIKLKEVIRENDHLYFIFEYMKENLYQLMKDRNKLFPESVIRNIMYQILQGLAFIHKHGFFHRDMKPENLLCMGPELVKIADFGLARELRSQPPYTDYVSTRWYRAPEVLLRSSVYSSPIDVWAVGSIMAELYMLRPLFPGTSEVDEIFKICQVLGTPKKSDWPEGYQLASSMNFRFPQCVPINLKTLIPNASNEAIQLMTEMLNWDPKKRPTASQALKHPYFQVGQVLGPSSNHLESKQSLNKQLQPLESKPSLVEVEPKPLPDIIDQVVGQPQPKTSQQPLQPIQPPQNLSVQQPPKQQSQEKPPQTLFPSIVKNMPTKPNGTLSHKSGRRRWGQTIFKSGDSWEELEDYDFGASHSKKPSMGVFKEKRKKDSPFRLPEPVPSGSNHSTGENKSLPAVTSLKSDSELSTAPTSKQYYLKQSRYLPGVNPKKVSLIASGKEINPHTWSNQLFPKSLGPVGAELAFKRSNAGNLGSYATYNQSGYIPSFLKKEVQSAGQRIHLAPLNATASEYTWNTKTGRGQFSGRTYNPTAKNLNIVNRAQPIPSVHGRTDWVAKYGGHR

CDK13 (human) = CDK13 (human) (UniProt Q14004)
SNRK (human) = SNRK (human) (UniProt Q9NRH2)
PIK3CA (human) = PIK3CA (human) (UniProt P42336)
PIK3C2G (human) = PIK3C2G (human) (UniProt O75747)
STK38 (human) = STK38 (human) (UniProt Q15208)
HIPK3 (human) = HIPK3 (human) (UniProt Q9H422)
TRPM6 (human) = TRPM6 (human) (UniProt Q9BX84)
DSTYK (human) = DSTYK (human) (UniProt Q6XUX3)
SIK3 (human) = SIK3 (human) (UniProt Q9Y2K2)
Sequence of SIK3 (human) (Q9Y2K2 whole entry, looked up): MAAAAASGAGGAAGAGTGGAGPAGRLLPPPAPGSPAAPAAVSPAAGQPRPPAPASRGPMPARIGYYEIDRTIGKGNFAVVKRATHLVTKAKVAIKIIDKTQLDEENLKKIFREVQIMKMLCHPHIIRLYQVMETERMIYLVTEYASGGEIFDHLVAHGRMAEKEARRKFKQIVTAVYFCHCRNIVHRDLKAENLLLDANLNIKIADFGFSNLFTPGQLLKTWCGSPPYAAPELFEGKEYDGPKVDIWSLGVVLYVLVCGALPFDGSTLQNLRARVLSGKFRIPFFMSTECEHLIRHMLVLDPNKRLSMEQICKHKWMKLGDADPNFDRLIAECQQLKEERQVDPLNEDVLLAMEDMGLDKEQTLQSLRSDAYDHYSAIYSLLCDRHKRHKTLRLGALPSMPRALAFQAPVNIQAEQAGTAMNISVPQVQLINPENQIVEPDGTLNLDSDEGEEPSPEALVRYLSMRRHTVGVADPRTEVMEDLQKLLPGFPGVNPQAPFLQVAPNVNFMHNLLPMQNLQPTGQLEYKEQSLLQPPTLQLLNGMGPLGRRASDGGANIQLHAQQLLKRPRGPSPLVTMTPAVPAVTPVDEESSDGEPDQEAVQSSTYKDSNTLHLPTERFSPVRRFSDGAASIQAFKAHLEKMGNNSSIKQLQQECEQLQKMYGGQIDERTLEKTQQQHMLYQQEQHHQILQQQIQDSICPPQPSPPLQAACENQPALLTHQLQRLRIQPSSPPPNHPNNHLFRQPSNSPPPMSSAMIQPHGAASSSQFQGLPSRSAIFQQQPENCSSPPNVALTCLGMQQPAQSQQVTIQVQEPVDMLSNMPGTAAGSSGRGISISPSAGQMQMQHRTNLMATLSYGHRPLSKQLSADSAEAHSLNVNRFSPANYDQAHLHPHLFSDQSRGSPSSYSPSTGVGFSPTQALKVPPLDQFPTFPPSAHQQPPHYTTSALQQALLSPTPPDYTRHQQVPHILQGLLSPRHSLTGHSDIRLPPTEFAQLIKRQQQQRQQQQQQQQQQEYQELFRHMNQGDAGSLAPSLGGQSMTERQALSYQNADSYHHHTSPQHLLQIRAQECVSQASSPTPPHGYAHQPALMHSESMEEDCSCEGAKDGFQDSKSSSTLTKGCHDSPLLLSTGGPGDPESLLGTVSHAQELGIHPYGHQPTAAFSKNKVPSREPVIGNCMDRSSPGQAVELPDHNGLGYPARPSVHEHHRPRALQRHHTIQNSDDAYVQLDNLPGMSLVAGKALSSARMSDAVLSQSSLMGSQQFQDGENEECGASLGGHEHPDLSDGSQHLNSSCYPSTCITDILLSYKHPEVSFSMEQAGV

CDKL3 (human) = CDKL3 (human) (UniProt Q8IVW4)
MAP2K7 (human) = MAP2K7 (human) (UniProt O14733)
OXSR1 (human) = OXSR1 (human) (UniProt O95747)
PIP5K1C (human) = PIP5K1C (human) (UniProt O60331)
Sequence of PIP5K1C (human) (O60331 whole entry, looked up): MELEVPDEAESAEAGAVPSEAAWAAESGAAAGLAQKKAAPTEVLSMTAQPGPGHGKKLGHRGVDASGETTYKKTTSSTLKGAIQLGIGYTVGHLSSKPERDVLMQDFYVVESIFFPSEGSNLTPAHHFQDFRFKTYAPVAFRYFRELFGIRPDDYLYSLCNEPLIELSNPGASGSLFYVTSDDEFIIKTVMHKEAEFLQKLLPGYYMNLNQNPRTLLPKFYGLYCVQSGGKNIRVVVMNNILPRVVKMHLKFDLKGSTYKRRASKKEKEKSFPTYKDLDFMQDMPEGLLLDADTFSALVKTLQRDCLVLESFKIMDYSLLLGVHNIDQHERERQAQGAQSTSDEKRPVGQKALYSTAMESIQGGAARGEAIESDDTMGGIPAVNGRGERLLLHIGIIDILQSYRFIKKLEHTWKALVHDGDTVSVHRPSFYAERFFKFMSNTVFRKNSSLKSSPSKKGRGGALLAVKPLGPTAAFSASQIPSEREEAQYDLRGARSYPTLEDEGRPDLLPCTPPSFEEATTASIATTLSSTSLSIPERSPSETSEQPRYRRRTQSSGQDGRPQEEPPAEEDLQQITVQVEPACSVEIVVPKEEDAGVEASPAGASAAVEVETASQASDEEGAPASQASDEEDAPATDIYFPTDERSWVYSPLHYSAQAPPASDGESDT

PIP4K2C (human) = PIP4K2C (human) (UniProt Q8TBX8)
GRK7 (human) = GRK7 (human) (UniProt Q8WTQ7)

SMILES	kinase still bound, per cent of control (EGFR (human)) [%]	kinase still bound, per cent of control (TBK1 (human)) [%]	kinase still bound, per cent of control (DYRK2 (human)) [%]	kinase still bound, per cent of control [1] [%]	kinase still bound, per cent of control (GRK1 (human)) [%]	kinase still bound, per cent of control (NEK4 (human)) [%]	kinase still bound, per cent of control (MAP3K15 (human)) [%]	kinase still bound, per cent of control (PKN3 (M.tuberculosis)) [%]	kinase still bound, per cent of control [2] [%]	kinase still bound, per cent of control (MAP3K2 (human)) [%]	kinase still bound, per cent of control (MAP3K1 (human)) [%]	kinase still bound, per cent of control [3] [%]	kinase still bound, per cent of control (CRK2 (P.falciparum)) [%]	kinase still bound, per cent of control [4] [%]	kinase still bound, per cent of control (CDK4 CCND3 (human)) [%]	kinase still bound, per cent of control (TIE1 (human)) [%]	kinase still bound, per cent of control [5] [%]	kinase still bound, per cent of control (MAP3K6 (human)) [%]	kinase still bound, per cent of control (MATK (human)) [%]	kinase still bound, per cent of control (NEK11 (human)) [%]	further results
Cc1ccc(NC(=O)c2cccc(C(C)(C)C#N)c2)cc1Nc1ccc2ncn(C)c(=O)c2c1	37	100	100	19	100	89	100	100	100	88	76	15	94	0.35	90	11	34	100	100	94	kinase still bound, per cent of control [6]: 37%; kinase still bound, per cent of control (DDR1 (human)): 0%; kinase still bound, per cent of control (PRPF4B (human)): 100%; kinase still bound, per cent of control (CSNK1A1 (human)): 100%; kinase still bound, per cent of control (MAK (human)): 100%; kinase still bound, per cent of control (CDK13 (human)): 100%; kinase still bound, per cent of control (SNRK (human)): 100%; kinase still bound, per cent of control (PIK3CA (human)): 100%; kinase still bound, per cent of control (PIK3C2G (human)): 88%; kinase still bound, per cent of control (STK38 (human)): 100%; kinase still bound, per cent of control (HIPK3 (human)): 86%; kinase still bound, per cent of control (TRPM6 (human)): 100%; kinase still bound, per cent of control (DSTYK (human)): 78%; kinase still bound, per cent of control (SIK3 (human)): 100%; kinase still bound, per cent of control (CDKL3 (human)): 100%; kinase still bound, per cent of control (MAP2K7 (human)): 93%; kinase still bound, per cent of control (OXSR1 (human)): 96%; kinase still bound, per cent of control (PIP5K1C (human)): 75%; kinase still bound, per cent of control (PIP4K2C (human)): 100%; kinase still bound, per cent of control (GRK7 (human)): 91%
O=C1Nc2ccc(I)cc2/C1=C/c1cc(Br)c(O)c(Br)c1	56	95	54	50	92	93	80	64	61	100	84	36	90	23	99	86	55	100	100	100	kinase still bound, per cent of control [6]: 84%; kinase still bound, per cent of control (DDR1 (human)): 85%; kinase still bound, per cent of control (PRPF4B (human)): 50%; kinase still bound, per cent of control (CSNK1A1 (human)): 81%; kinase still bound, per cent of control (MAK (human)): 100%; kinase still bound, per cent of control (CDK13 (human)): 100%; kinase still bound, per cent of control (SNRK (human)): 99%; kinase still bound, per cent of control (PIK3CA (human)): 85%; kinase still bound, per cent of control (PIK3C2G (human)): 44%; kinase still bound, per cent of control (STK38 (human)): 64%; kinase still bound, per cent of control (HIPK3 (human)): 8%; kinase still bound, per cent of control (TRPM6 (human)): 100%; kinase still bound, per cent of control (DSTYK (human)): 66%; kinase still bound, per cent of control (SIK3 (human)): 100%; kinase still bound, per cent of control (CDKL3 (human)): 88%; kinase still bound, per cent of control (MAP2K7 (human)): 98%; kinase still bound, per cent of control (OXSR1 (human)): 100%; kinase still bound, per cent of control (PIP5K1C (human)): 19%; kinase still bound, per cent of control (PIP4K2C (human)): 100%; kinase still bound, per cent of control (GRK7 (human)): 73%
CN(C)C/C=C/C(=O)Nc1cccc(Nc2ncc3c(n2)N(C)c2ccccc2C(=O)N3C)c1	69	58	47	100	100	87	69	42	55	0.1	72	90	100	65	85	5.4	73	94	69	77	kinase still bound, per cent of control [6]: 67%; kinase still bound, per cent of control (DDR1 (human)): 5.4%; kinase still bound, per cent of control (PRPF4B (human)): 100%; kinase still bound, per cent of control (CSNK1A1 (human)): 26%; kinase still bound, per cent of control (MAK (human)): 100%; kinase still bound, per cent of control (CDK13 (human)): 96%; kinase still bound, per cent of control (SNRK (human)): 58%; kinase still bound, per cent of control (PIK3CA (human)): 54%; kinase still bound, per cent of control (PIK3C2G (human)): 76%; kinase still bound, per cent of control (STK38 (human)): 74%; kinase still bound, per cent of control (HIPK3 (human)): 85%; kinase still bound, per cent of control (TRPM6 (human)): 91%; kinase still bound, per cent of control (DSTYK (human)): 18%; kinase still bound, per cent of control (SIK3 (human)): 20%; kinase still bound, per cent of control (CDKL3 (human)): 100%; kinase still bound, per cent of control (MAP2K7 (human)): 97%; kinase still bound, per cent of control (OXSR1 (human)): 25%; kinase still bound, per cent of control (PIP5K1C (human)): 11%; kinase still bound, per cent of control (PIP4K2C (human)): 6%; kinase still bound, per cent of control (GRK7 (human)): 100%
